IC50 data for 17 compounds are collected here from patent publication US20250388553A1 (Incyte Corporation, priority 2018, published 2025).

In assay [1] the target is PI3Kγ (p110γ) Recombinant Human Protein (Homo sapiens (Human), UniProt P48736). The experiment in a line: PI3K-γ scintillation proximity assay. The format is biochemical. As to conditions: Table A1; scintillation proximity assay, recombinant human p110γ. From the text:
Example B. PI3K-γ Scintillation Proximity Assay
Materials: [γ-^33P]ATP (10 mCi/mL) and Wheat Germ Agglutinin (WGA) YSi SPA Scintillation Beads was purchased from Perkin Elmer (Waltham, MA). Lipid kinase substrate, D-myo-Phosphatidylinositol 4,5-bisphosphate (PtdIns(4,5)P2)D (+)-sn-1,2-di-O-octanoylglyceryl, 3-O-phospho linked (PIP2), CAS 204858-53-7, was purchased from Echelon Biosciences (Salt Lake City, UT). PI3Kγ (p110γ) Recombinant Human Protein was purchased from Life technology (Grand Island, NY). ATP, MgCl2, DTT, EDTA, MOPS and CHAPS were purchased from Sigma Aldrich (St. Louis, MO).
(§1) The kinase reaction was conducted in polystyrene 384-well Greiner Bio-one white plate from Thermo Fisher Scientific in a final volume of 25 L. Inhibitors were first diluted serially in DMSO and added to the plate wells before the addition of other reaction components. The final concentration of DMSO in the assay was 2%. The PI3Kγ assay was carried out at room temperature in 20 mM MOPS, pH 6.7, 10 mM MgCl2, 5 mM DTT and CHAPS 0.03%. Reactions were initiated by the addition of ATP, the final reaction mixture consisted of 20 µM […], 0.5 μCi [γ-^33P]ATP, 13 nM PI3Kγ. Reactions were incubated for 120 min and terminated by the addition of 40 μL SPA beads suspended in quench buffer: 163 mM potassium phosphate pH 7.8, 20% glycerol, 25 mM EDTA. The final concentration of SPA beads is 1.0 mg/mL. After the plate sealing, plates were shaken overnight at room temperature and centrifuged at 1500 rpm for 10 min, the radioactivity of the product was determined by scintillation counting on Topcount (Perkin-Elmer). IC50 determination was performed by fitting the curve of percent of the solvent control activity versus the log of the inhibitor concentration using the GraphPad Prism 6.0 software.
(§2) The compounds of the Examples were tested in the assays described in Examples A, B and C and found to have the IC50s are shown in Tables A1, A2, A3 and A4.
In general terms: Scintillation proximity formats need no separation of bound from free tracer.

In assay [2] the target is PI3Kδ (p1106/p85a) Recombinant Human Protein (Homo sapiens (Human), UniProt O00329). The experiment in a line: PI3Kδ scintillation proximity assay. The format is biochemical. The settings on record: scintillation proximity assay, recombinant human PI3Kδ.
Excerpt: Example C. PI3Kδ Scintillation Proximity Assay
Materials: [γ-^33P]ATP (10 mCi/mL) and Wheat Germ Agglutinin (WGA) YSi SPA Scintillation Beads was purchased from Perkin Elmer (Waltham, MA). Lipid kinase substrate, D-myo-Phosphatidylinositol 4,5-bisphosphate (PtdIns(4,5)P2)D (+)-sn-1,2-di-O-octanoylglyceryl, 3-O-phospho linked (PIP2), CAS 204858-53-7, was purchased from Echelon Biosciences (Salt Lake City, UT). PI3Kδ (p1106/p85a) Recombinant Human Protein was purchased from Eurofins (St Charles, MO). ATP, MgCl2, DTT, EDTA, MOPS and CHAPS were purchased from Sigma Aldrich (St. Louis, MO).
as §1, with “25 μL.” for “25 L.”, “The PI3Kδ” for “The PI3Kγ”, “[γ-^33P]ATP, 3.4” for “[γ-^33P]ATP, 13”, “nM PI3Kδ.” for “nM PI3Kγ.”, “Topcount (PerkinElmer).” for “Topcount (Perkin-Elmer).”
as §2

Where a name gives a salt, the structure may show the parent alone.

Sequence of PI3Kγ (p110γ) Recombinant Human Protein (P48736 whole entry): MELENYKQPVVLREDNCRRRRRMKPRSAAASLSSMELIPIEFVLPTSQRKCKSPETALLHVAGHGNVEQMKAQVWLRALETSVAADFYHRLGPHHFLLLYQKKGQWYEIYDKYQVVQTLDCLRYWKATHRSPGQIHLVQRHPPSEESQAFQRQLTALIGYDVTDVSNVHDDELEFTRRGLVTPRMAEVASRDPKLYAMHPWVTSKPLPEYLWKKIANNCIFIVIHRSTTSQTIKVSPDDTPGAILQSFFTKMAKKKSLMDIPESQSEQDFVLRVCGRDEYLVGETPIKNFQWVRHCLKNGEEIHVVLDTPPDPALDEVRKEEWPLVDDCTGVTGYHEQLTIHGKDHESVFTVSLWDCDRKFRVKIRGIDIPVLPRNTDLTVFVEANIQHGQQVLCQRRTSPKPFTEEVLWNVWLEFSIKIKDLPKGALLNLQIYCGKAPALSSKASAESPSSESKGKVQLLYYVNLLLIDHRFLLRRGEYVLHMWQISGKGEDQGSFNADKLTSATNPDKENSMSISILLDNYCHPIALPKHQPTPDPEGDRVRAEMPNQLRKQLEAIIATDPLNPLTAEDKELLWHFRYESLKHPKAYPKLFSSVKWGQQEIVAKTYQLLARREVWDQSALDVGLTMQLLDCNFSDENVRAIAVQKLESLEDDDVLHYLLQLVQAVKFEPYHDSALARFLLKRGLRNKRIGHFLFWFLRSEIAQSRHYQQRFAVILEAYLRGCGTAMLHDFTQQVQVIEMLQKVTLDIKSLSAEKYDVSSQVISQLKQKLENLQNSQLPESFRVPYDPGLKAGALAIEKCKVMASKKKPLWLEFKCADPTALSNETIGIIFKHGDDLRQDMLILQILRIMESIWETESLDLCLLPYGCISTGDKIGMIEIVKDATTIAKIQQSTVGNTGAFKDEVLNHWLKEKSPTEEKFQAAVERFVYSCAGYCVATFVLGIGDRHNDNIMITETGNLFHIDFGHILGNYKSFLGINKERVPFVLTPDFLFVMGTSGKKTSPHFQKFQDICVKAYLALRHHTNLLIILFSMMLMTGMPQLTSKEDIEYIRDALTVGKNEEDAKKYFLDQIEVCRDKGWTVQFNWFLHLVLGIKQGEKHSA
Sequence of PI3Kδ (p1106/p85a) Recombinant Human Protein (O00329 whole entry): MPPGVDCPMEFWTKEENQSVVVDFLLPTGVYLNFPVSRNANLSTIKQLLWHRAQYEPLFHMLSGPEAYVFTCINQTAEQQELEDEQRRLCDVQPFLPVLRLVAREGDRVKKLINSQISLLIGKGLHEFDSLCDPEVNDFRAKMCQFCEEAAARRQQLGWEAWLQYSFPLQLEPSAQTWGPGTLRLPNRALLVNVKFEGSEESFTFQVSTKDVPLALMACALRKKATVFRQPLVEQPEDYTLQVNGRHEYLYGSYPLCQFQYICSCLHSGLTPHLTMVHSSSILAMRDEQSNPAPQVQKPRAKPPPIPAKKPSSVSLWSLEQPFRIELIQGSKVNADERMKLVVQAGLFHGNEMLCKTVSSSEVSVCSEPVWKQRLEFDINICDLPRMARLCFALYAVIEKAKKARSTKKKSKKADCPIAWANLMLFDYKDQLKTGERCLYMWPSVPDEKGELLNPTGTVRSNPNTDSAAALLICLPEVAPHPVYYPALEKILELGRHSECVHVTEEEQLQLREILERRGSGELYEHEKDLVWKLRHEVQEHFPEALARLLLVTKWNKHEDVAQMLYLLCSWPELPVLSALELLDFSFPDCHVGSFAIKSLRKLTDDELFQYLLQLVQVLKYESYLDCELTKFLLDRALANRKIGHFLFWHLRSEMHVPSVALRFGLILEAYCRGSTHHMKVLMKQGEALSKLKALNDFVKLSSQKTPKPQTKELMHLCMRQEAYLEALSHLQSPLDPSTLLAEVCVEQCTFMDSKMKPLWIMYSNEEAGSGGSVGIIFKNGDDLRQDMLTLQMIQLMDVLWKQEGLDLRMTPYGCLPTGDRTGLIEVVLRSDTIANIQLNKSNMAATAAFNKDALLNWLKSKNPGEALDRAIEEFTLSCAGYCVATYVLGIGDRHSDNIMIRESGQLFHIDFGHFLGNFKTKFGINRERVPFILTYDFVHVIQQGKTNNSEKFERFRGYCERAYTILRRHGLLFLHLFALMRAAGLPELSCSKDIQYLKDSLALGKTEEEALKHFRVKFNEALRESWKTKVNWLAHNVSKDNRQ
Sequence of PI3Kδ (p1106/p85a) Recombinant Human Protein (P27986 whole entry partner): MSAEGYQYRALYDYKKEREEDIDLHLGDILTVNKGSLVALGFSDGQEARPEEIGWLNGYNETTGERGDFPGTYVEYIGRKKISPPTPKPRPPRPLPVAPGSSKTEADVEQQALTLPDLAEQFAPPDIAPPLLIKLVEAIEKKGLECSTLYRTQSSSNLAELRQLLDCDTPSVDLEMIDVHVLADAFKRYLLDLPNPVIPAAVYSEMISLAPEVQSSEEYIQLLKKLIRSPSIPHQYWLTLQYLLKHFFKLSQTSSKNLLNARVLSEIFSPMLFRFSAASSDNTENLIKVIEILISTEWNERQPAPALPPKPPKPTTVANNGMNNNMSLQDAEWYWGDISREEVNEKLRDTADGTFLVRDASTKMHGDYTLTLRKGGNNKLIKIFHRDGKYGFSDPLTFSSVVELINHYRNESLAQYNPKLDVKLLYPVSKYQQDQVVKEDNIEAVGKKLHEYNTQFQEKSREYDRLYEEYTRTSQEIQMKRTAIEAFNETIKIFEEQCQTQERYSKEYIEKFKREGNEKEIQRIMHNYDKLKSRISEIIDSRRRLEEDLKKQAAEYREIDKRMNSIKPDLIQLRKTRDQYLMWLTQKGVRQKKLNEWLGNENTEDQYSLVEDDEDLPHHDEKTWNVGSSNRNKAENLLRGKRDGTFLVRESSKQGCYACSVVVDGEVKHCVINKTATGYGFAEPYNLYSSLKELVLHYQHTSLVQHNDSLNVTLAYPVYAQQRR

Take `Cc1ccc(C(O)(C(N)=O)C(F)(F)F)cc1-c1cnc(N)c(C(=O)NC2CC3CCC2O3)n1` (single isomer, unassigned) [Example 30, 3-amino-6-(5-(3-amino-1,1,1-trifluoro-2-hydroxy-3-oxopropan-2-yl)-2-methylphenyl)-N-(7-oxabicyclo[2.2.1]heptan-2-yl)pyrazine-2-carboxamide]: the half-inhibitory concentration (IC50) in assay [1] and in assay [2] (Table A1) was less than 100 nM each time.
Consider `Cc1ccc(C(O)(C(N)=O)C(F)(F)F)cc1-c1cnc(N)c(C(=O)NCC(O)C(F)(F)F)n1` (single isomer, unassigned) [Example 43B, 3-amino-6-(5-(3-amino-1,1,1-trifluoro-2-hydroxy-3-oxopropan-2-yl)-2-methylphenyl)-N-(3,3,3-trifluoro-2-hydroxypropyl)pyrazine-2-carboxamide], for which the half-maximal inhibitory concentration (IC50) in assay [1] and in assay [2] (Table A1) was less than 100 nM throughout.
Take `Cc1ccc(C(O)(C(N)=O)C(F)(F)F)cc1-c1cnc(N)c(C2CC(C(=O)NC(C)C)C2)n1` (single isomer, unassigned) [Example 111, 3-(3-Amino-6-(5-(3-amino-1,1,1-trifluoro-2-hydroxy-3-oxopropan-2-yl)-2-methylphenyl)pyrazin-2-yl)-N-isopropylcyclobutane-1-carboxamide]: the IC50 (as a rule, the point on the concentration scale where inhibition reaches its midpoint) in assay [2] (Table A4) was 100 to 500 nM.
For `Cc1ccc(C(O)(C(N)=O)C(F)(F)F)cc1-c1cnc(N)c(C(=O)NCC(C)(C)O)n1` (stereo not drawn) [Example 1, 3-Amino-6-(5-(3-amino-1,1,1-trifluoro-2-hydroxy-3-oxopropan-2-yl)-2-methylphenyl)-N-(2-hydroxy-2-methylpropyl)pyrazine-2-carboxamide], the half-inhibitory concentration (IC50) in assay [1] and in assay [2] (Table A1) was less than 100 nM throughout.
Turning to `Cc1ccc(C(O)(C(N)=O)C(F)(F)F)cc1-c1cnc(N)c(C(=O)NC2CCOCC2)n1` (stereo not drawn) [Example 2, 3-amino-6-(5-(3-amino-1,1,1-trifluoro-2-hydroxy-3-oxopropan-2-yl)-2-methylphenyl)-N-(tetrahydro-2H-pyran-4-yl)pyrazine-2-carboxamide trifluoroacetate], the concentration for half-maximal inhibition (IC50) in assay [1] and in assay [2] (Table A1) was less than 100 nM each time.
Consider `Cc1ccc(C(O)(C(N)=O)C(F)(F)F)cc1-c1cnc(N)c(C(=O)NCC2(C#N)CC2)n1` (stereo not drawn) [Example 4, 3-amino-6-(5-(3-amino-1,1,1-trifluoro-2-hydroxy-3-oxopropan-2-yl)-2-methylphenyl)-N-((1-cyanocyclopropyl)methyl)pyrazine-2-carboxamide trifluoroacetate], for which the IC50 in assay [1] and in assay [2] (Table A1) was less than 100 nM in each case.
With `Cc1ccc(C(O)(C(N)=O)C(F)(F)F)cc1-c1cnc(N)c(C(=O)NC(C)C)n1` (stereo not drawn) [Example 5, 3-Amino-6-(5-(3-amino-1,1,1-trifluoro-2-hydroxy-3-oxopropan-2-yl)-2-methylphenyl)-N-isopropylpyrazine-2-carboxamide trifluoroacetate], the concentration for half-maximal inhibition (IC50) in assay [1] and in assay [2] (Table A1) was less than 100 nM throughout.
As to `Cc1ccc(C(O)(C(N)=O)C(F)(F)F)cc1-c1cnc(N)c(C(=O)NC2CCC(F)(F)CC2)n1` (stereo not drawn) [Example 6, 3-amino-6-(5-(3-amino-1,1,1-trifluoro-2-hydroxy-3-oxopropan-2-yl)-2-methylphenyl)-N-(4,4-difluorocyclohexyl)pyrazine-2-carboxamide trifluoroacetate], the IC50 in assay [1] and in assay [2] (Table A1) was less than 100 nM each time.
Turning to `CCNC(=O)c1nc(-c2cc(C(O)(C(N)=O)C(F)(F)F)ccc2C)cnc1N` (stereo not drawn) [Example 7, 3-Amino-6-(5-(3-amino-1,1,1-trifluoro-2-hydroxy-3-oxopropan-2-yl)-2-methylphenyl)-N-ethylpyrazine-2-carboxamide trifluoroacetate], the IC50 in assay [1] and in assay [2] (Table A1) was less than 100 nM each time.
Turning to `Cc1ccc(C(O)(C(N)=O)C(F)(F)F)cc1-c1cnc(N)c(C(=O)N[C@@H](C)CC#N)n1` (stereo partly drawn) [Example 8, 3-amino-6-(5-(3-amino-1,1,1-trifluoro-2-hydroxy-3-oxopropan-2-yl)-2-methylphenyl)-N-((S)-1-cyanopropan-2-yl)pyrazine-2-carboxamide trifluoroacetate], the IC50 in assay [1] and in assay [2] (Table A1) was less than 100 nM in each case.
Regarding `Cc1ccc(C(O)(C(N)=O)C(F)(F)F)cc1-c1cnc(N)c(C(=O)N[C@@H]2CCCOC2)n1` (stereo partly drawn) [Example 9, 3-amino-6-(5-(3-amino-1,1,1-trifluoro-2-hydroxy-3-oxopropan-2-yl)-2-methylphenyl)-N-((R)-tetrahydro-2H-pyran-3-yl)pyrazine-2-carboxamide trifluoroacetate], the half-maximal inhibitory concentration (IC50) in assay [1] and in assay [2] (Table A1) was less than 100 nM throughout.
As for `Cc1ccc(C(O)(C(N)=O)C(F)(F)F)cc1-c1cnc(N)c(C(=O)N[C@H]2CCCOC2)n1` (stereo partly drawn) [Example 10, 3-amino-6-(5-(3-amino-1,1,1-trifluoro-2-hydroxy-3-oxopropan-2-yl)-2-methylphenyl)-N-((S)-tetrahydro-2H-pyran-3-yl)pyrazine-2-carboxamide trifluoroacetate], the half-maximal inhibitory concentration (IC50) in assay [1] and in assay [2] (Table A1) was less than 100 nM throughout.
Turning to `Cc1ccc(C(O)(C(N)=O)C(F)(F)F)cc1-c1cnc(N)c(C(=O)N[C@H]2CCOC2)n1` (stereo partly drawn) [Example 11, 3-amino-6-(5-(3-amino-1,1,1-trifluoro-2-hydroxy-3-oxopropan-2-yl)-2-methylphenyl)-N-((S)-tetrahydrofuran-3-yl)pyrazine-2-carboxamide trifluoroacetate], the IC50 in assay [1] and in assay [2] (Table A1) was less than 100 nM each time.
`Cc1ccc(C(O)(C(N)=O)C(F)(F)F)cc1-c1cnc(N)c(C(=O)N[C@@H](C)CO)n1` (stereo partly drawn) [Example 12, 3-amino-6-(5-(3-amino-1,1,1-trifluoro-2-hydroxy-3-oxopropan-2-yl)-2-methylphenyl)-N-((S)-1-hydroxypropan-2-yl)pyrazine-2-carboxamide]: the IC50 in assay [1] and in assay [2] (Table A1) was less than 100 nM throughout.
For the compound `Cc1ccc(C(O)(C(N)=O)C(F)(F)F)cc1-c1cnc(N)c(C(=O)NC(C)(C)CO)n1` (stereo not drawn) [Example 13, 3-Amino-6-(5-(3-amino-1,1,1-trifluoro-2-hydroxy-3-oxopropan-2-yl)-2-methylphenyl)-N-(1-hydroxy-2-methylpropan-2-yl)pyrazine-2-carboxamide], the IC50 in assay [1] and in assay [2] (Table A1) was less than 100 nM each time.
For the compound `Cc1ccc(C(O)(C(N)=O)C(F)(F)F)cc1-c1cnc(N)c(C(=O)NCCC#N)n1` (stereo not drawn) [Example 14, 3-amino-6-(5-(3-amino-1,1,1-trifluoro-2-hydroxy-3-oxopropan-2-yl)-2-methylphenyl)-N-(2-cyanoethyl)pyrazine-2-carboxamide trifluoroacetate], the IC50 in assay [1] and in assay [2] (Table A1) was less than 100 nM throughout.
Regarding `Cc1ccc(C(O)(C(N)=O)C(F)(F)F)cc1-c1cnc(N)c(C(=O)NCC(C)(C)C#N)n1` (stereo not drawn) [Example 15, 3-amino-6-(5-(3-amino-1,1,1-trifluoro-2-hydroxy-3-oxopropan-2-yl)-2-methylphenyl)-N-(2-cyano-2-methylpropyl)pyrazine-2-carboxamide trifluoroacetate], the IC50 in assay [1] and in assay [2] (Table A1) was less than 100 nM each time.
